Assay results published in ChEMBL document CHEMBL1133880 (Bioorg Med Chem Lett, 2001).
Residues, ends and D or L forms follow the SMILES beside them. *: point of attachment. Octanoyl = CCCCCCCC(=O)*

Columns and labels:
[1] = molecular target: T1, Growth hormone secretagogue receptor type 1 (Homo sapiens, UniProt Q92847); test: Binding affinity towards human Growth hormone secretagogue receptor type 1 using competitive binding assay with radiolabeled [35S]-MK-0677 expressed as IC50
[2] = molecular target: T1, Growth hormone secretagogue receptor type 1; test: Functional potency measured as intracellular calcium elevation in Hek-293 cells expressing hGHSR1a; assay type: cell-based, HEK293

T1 sequence (Q92847 whole entry): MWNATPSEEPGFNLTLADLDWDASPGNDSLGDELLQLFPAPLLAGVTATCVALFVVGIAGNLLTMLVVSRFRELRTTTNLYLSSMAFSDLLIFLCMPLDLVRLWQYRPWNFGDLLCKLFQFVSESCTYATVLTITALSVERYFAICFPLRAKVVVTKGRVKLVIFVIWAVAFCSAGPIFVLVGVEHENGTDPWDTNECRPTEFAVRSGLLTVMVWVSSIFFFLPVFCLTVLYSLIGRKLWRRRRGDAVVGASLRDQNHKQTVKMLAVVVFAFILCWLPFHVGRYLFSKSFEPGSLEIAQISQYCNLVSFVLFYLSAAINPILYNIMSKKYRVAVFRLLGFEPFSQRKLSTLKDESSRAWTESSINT

SMILES	IC50 [1]	EC50 [2]
CCCCCCCC(=O)OC[C@@H](NC(=O)[C@@H](N)CO)C(=O)N1CCC2(CC1)CN(S(C)(=O)=O)c1ccccc12	829 nM	432 nM
CCCCCCCC(=O)OC[C@@H](NC(=O)C(C)(C)N)C(=O)N1CCC2(CC1)CN(S(C)(=O)=O)c1ccccc12	8.12 nM	19.6 nM
CS(=O)(=O)N1CC2(CCN(C(=O)[C@@H](COCc3ccccc3)NC(=O)[C@@H](N)CO)CC2)c2ccccc21	209 nM	69.2 nM
CS(=O)(=O)N1CC2(CCN(C(=O)[C@@H](COCc3ccccc3)NC(=O)[C@H](CO)NC(=O)CN)CC2)c2ccccc21	36.2 nM	7.95 nM
CCCCCCCC(=O)OC[C@H](NC(=O)[C@H](CO)NC(=O)CN)C(=O)N1CCC2(CC1)CN(S(C)(=O)=O)c1ccccc12	2670 nM	448 nM
CCCCCCCC(=O)OC[C@H](NC(=O)C(C)(C)N)C(=O)N1CCC2(CC1)CN(S(C)(=O)=O)c1ccccc12	590 nM	378 nM
CCCCCCCC(=O)OC[C@@H](NC(=O)[C@H](CO)NC(=O)CN)C(=O)N1CCC2(CC1)CN(S(C)(=O)=O)c1ccccc12	128 nM	68.2 nM
CCCCCCCC(=O)OC[C@H](NC(=O)CN)C(=O)N[C@@H](CO)C(=O)N[C@@H](Cc1ccccc1)C(=O)O (H-GS(Octanoyl)SF-OH)	889 nM	72 nM
